The subject of data set [1] is MDA-MB-231 cells. Set-up: method as in PMID 34995063. The conditions noted are these: MTT assay, exposure 72 h; read-out: 50% inhibitory concentration (IC50) MDA-MB-231; cited from earlier work.
The subject of data set [2] is LM3 cells. Set-up: method as in PMID 34995063. The conditions noted are these: MTT assay, exposure 72 h; read-out: 50% inhibitory concentration (IC50) LM3; cited from earlier work.
Data set [3] relates to HEK293 cells. Set-up: method as in doi:10.1021/acs.organomet.9b00229. Conditions: MTT assay, exposure 72 h; read-out: 50% inhibitory concentration (IC50) HEK293; cited from earlier work.
Data set [4] deals with LM3 cells. The data set can be described thus: MTT antiproliferative assay, LM3. The data set is classed as cell-based. Conditions: exposure 72 h, read-out: 50% inhibitory concentration (IC50) LM3. The protocol: (§1) The in vitro antiproliferative activity of novel organic compounds HL^1–HL^4 and corresponding copper(II) complexes 1–4 was tested in the breast cancer cell line MDA-MB-231, hepatocellular carcinoma cell line LM3, and human embryonic kidney cell line HEK293 and then compared to those of the previously reported paullones HL^5–HL^7 and copper(II) complexes 5–7,[39],[44] as well as latonduines HL^8–HL^11 and copper(II) complexes 8–11.[34] […] The in vitro anticancer activity was determined by the colorimetric MTT assay with an exposure time of 72 h.
(§2) Human breast adenocarcinoma MDA-MB-231 and human embryonic kidney HEK293 cells were obtained from ATCC. Hepatocellular carcinoma LM3 cells were a kind gift of Prof. Kan Man Hui (Duke-NUS Medical School). All cells were cultured in DMEM medium containing 10% FBS in tissue culture 75 cm^2 flasks (BDBiosciences, Singapore) at 37 °C in a humidified atmosphere of 95% air and 5% CO2. All stock solutions were prepared in DMSO. The amount of actual Cu concentration in stock solutions was verified by ICP-OES.
(§3) The cytotoxicity of the compounds was determined by the colorimetric MTT assay. The cells were harvested from culture flasks by trypsinization and seeded into CELLSTAR 96-well microculture plates at the seeding density of 6000 cells per well (6 × 10^4 cells/mL). […] Optical densities were measured at 570 nm using the BioTekH1 Synergy microplate reader. […]

The subject of data set [5] is MDA-MB-231 cells. The data set can be described thus: MTT antiproliferative assay, MDA-MB-231. It counts as cell-based, human. The conditions noted are these: exposure 72 h, read-out: 50% inhibitory concentration (IC50) MDA-MB-231. The protocol: as §1, §2, §3
Data set [6] in a line: Solution stability (UV-vis, ESI-MS, 1H NMR). Conditions: aqueous solution containing 1% DMSO, 72 h. The data set is classed as physicochemical. The protocol:
First, UV–vis kinetic studies were performed with the ligands HL^2 and HL^4 (Figure S30) and the copper(II) complexes 1–4 in aqueous solutions containing 1% DMSO (Figures S31 and 32). Additionally, the stability of the copper(II) complex 4 was also measured in phosphate-buffered saline (PBS) (pH ∼ 7.4) containing 3% DMSO over 24 h. […] Additional peaks which could be assigned to the dissociated ligand or any its fragments due to a hypothetical ligand degradation have not been registered. In addition to UV–vis data, the stability and purity of complex 4 were tested by analytical HPLC-HR ESI MS using methanol or acetonitrile with 0.1% formic acid as the eluent over 10 min. A single peak at around 1 min corresponding to [Cu^II(L^4)]^+ (found m/z = 506.9939 (Figure S23), calcd m/z for C23H17BrCuN5 507.0063) was registered in agreement with other experiments. In addition, the stability of HL^4 in 1:1 DMSO-d6/D2O at 25 °C was monitored by ^1H NMR spectroscopy. […] In addition, solution stability of the lead complex 4 was studied in ethanol-cell culture medium (1:1 v/v) by monitoring the electronic absorption spectra in the visible region within a time period of 8 h (Figure S34, Supporting Information).

Data set [7] deals with HEK293 cells. The data set can be described thus: MTT assay, noncancerous HEK293. It counts as cell-based, human. Conditions: exposure 72 h, read-out: 50% inhibitory concentration (IC50) HEK293. The protocol: as §1, §2, §3

Structures are written as SMILES. Like-named read-outs stand apart in the source and are kept apart here.

Consider `N.N.[Cl][Pt][Cl]` [cisplatin], for which the IC50 in the data set on MDA-MB-231 cells [1] was 21000 ± 5000 nM; in the data set on LM3 cells [2] it was 10000 ± 3000 nM; with HEK293 cells [3], 3400 ± 1100 nM.

For `C(=N\N=C1/NCc2ccccc2-c2[nH]c3ccccc3c21)/c1ccccn1` [HL^1], the IC50 with LM3 cells [4] came to 1400 ± 200 nM; with MDA-MB-231 cells [5], 1500 ± 100 nM; with HEK293 cells [7], 2000 ± 100 nM. Moreover, the “stability by UV–vis absorption spectra” value in data set [6] is “no changes in the UV–vis absorption spectra over 72 h”.

Values taken from publication PMC9490829, “Elucidation of Structure–Activity Relationships in Indolobenzazepine-Derived Ligands and Their Copper(II) Complexes: the Role of Key Structural Components and Insight into the Mechanism of Action” (Inorganic Chemistry, 2022).
